Results as given in patent US8399452B2, “Dibenzo[b,f][1,4]oxazepin-11-yl-N-hydroxybenzamides as HDAC inhibitors” (Methylgene Inc., priority 2006, dated 2013).

Each compound was assayed against histone deacetylase (HDAC Enzyme) (assay: Inhibition of Histone Deacetylase Enzymatic Activity (Boc-Lys(Ac)-AMC, Fluor-de-Lys developer)). Details: Table 9; read-out: HDAC Inhibition (IC50 μM) HDAC Enzyme.
Type: biochemical
Method: The following protocol is used to assay the compounds of the invention.
The mixture is pre-incubated for 5 minutes at room temperature. The reaction is started by bringing the temperature to 37° C. and adding 16 μl substrate. Total reaction volume is 50 μl.
In the Tables 8, 9 and 10, A≦[…]<B≦0.1 μM; 0.1 μM<C≦1 μM; and 1 μM<D≦10 μM.

SMILES	IC50 [µM]
O=C(NO)c1cnc(N2C[C@@H]3C[C@H]2CN3c2cccc(S(F)(F)(F)(F)F)c2)nc1	< 0.05
O=C(NO)c1cnc(N2CC3CC2CO3)nc1 (stereo not shown) [2-(2-oxa-5-azabicyclo[2.2.1]heptan-5-yl)-N-hydroxypyrimidine-5-carboxamide]	0.1 to 1
O=C(NO)c1cnc(N2C[C@@H]3C[C@H]2CN3)nc1 [2-((1S,4S)-2,5-diazabicyclo[2.2.1]heptan-2-yl)-N-hydroxypyrimidine-5-carboxamide]	0.1 to 1
O=C(NO)c1cnc(N2C[C@@H]3C[C@H]2CN3c2ccc3c(c2)OC(F)(F)O3)nc1 [2-((1S,4S)-5-(2,2-difluorobenzo[d][1,3]dioxol-5-yl)-2,5-diazabicyclo[2.2.1]heptan-2-yl)-N-hydroxypyrimidine-5-carboxamide]	< 0.05
O=C(NO)c1cnc(N2C[C@@H]3C[C@H]2CN3c2ccc(C(F)(F)F)cc2F)nc1 [2-((1S,4S)-5-(2-fluoro-4-(trifluoromethyl)phenyl)-2,5-diazabicyclo[2.2.1]heptan-2-yl)-N-hydroxypyrimidine-5-carboxamide]	< 0.05
O=C(NO)c1cnc(N2C[C@@H]3C[C@H]2CN3c2cc(C(F)(F)F)cc(C(F)(F)F)c2)nc1 [2-((1S,4S)-5-(3,5-bis(trifluoromethyl)phenyl)-2,5-diazabicyclo[2.2.1]heptan-2-yl)-N-hydroxypyrimidine-5-carboxamide]	< 0.05
CN(C)C(=O)c1cccc(N2C[C@@H]3C[C@H]2CN3c2ncc(C(=O)NO)cn2)c1 [2-((1S,4S)-5-(3-(dimethylcarbamoyl)phenyl)-2,5-diazabicyclo[2.2.1]heptan-2-yl)-N-hydroxypyrimidine-5-carboxamide]	< 0.05

Results, then the compound that gave them:

IC50 [µM]	SMILES
< 0.05	N#Cc1cccc(N2CC3CC2CN3c2ncc(C(=O)NO)cn2)c1 (stereo not shown) [2-(5-(3-cyanophenyl)-2,5-diazabicyclo[2.2.1]heptan-2-yl)-N-hydroxypyrimidine-5-carboxamide]
0.05 to 0.1	O=C(NO)c1cnc(N2C[C@@H]3C[C@H]2CN3C(=O)C(c2ccccc2)c2ccccc2)nc1 [2-((1S,4S)-5-(2,2-diphenylacetyl)-2,5-diazabicyclo[2.2.1]heptan-2-yl)-N-hydroxypyrimidine-5-carboxamide]
< 0.05	CN(C)Cc1cccc(N2C[C@@H]3C[C@H]2CN3c2ncc(C(=O)NO)cn2)c1 [2-((1S,4S)-5-(3-((dimethylamino)methyl)phenyl)-2,5-diazabicyclo[2.2.1]heptan-2-yl)-N-hydroxypyrimidine-5-carboxamide]
< 0.05	O=C(NO)c1cnc(N2C[C@@H]3C[C@H]2CN3c2cccc(OC(F)F)c2)nc1 [2-((1S,4S)-5-(3-(difluoromethoxy)phenyl)-2,5-diazabicyclo[2.2.1]heptan-2-yl)-N-hydroxypyrimidine-5-carboxamide]
< 0.05	O=C(NO)c1cnc(N2C[C@@H]3C[C@H]2CN3c2cccc(F)c2)nc1 [2-((1S,4S)-5-(3-fluorophenyl)-2,5-diazabicyclo[2.2.1]heptan-2-yl)-N-hydroxypyrimidine-5-carboxamide]

Same assay, conditions: Table 10; read-out: HDAC Inhibition (IC50 μM) HDAC Enzyme

SMILES	IC50 [µM]
O=C(NO)c1cnc(N2CCCN(c3ncc(C(F)(F)F)cc3Cl)CC2)nc1	< 0.05
O=C(NO)c1cnc(N2C[C@@H]3C[C@]3(c3ccc(Cl)c(Cl)c3)C2)nc1	0.1 to 1
O=C(CCCCCN1C(=O)c2ccccc2N(C2CC2)c2ccccc21)NO	0.1 to 1
O=C(CCCCCCN1C(=O)c2ccccc2N(C2CC2)c2ccccc21)NO	0.1 to 1
O=C(CCCCCCCON=C1c2ccccc2CCc2ccccc21)NO	0.1 to 1
O=C(CCCCCCON=C1c2ccccc2CCc2ccccc21)NO	0.1 to 1
O=C(/C=C/c1ccc(CNC2c3ccccc3CCc3ccccc32)cc1)NO	0.05 to 0.1
O=C(CCCCCON=c1c2ccccc2ccc2ccccc12)NO	0.1 to 1
O=C(CCCCCCN1c2ccccc2Oc2ccccc2S1(=O)=O)NO	0.1 to 1
O=C(CCCCCCC(=O)NC1c2ccccc2C=Cc2ccccc21)NO	0.1 to 1
O=C(CCCCCC(=O)NC1c2ccccc2C=Cc2ccccc21)NO	0.1 to 1
O=C(NO)c1cn2c(n1)sc1ccccc12	0.1 to 1
O=C(Cc1ccc(CN2C(=O)c3ccccc3Oc3ccccc32)cc1)NO	0.1 to 1
O=C(NO)c1cnc(N2C[C@H]3C[C@@]3(c3cccc(C(F)(F)F)c3)C2)nc1	0.1 to 1
O=C(CCn1cc(CN2C(=O)c3ccccc3Oc3ccccc32)nn1)NO	0.1 to 1
O=C(/C=C/c1ccc(CN2C(=O)c3ccccc3Oc3ccccc32)cc1)NO	< 0.05
O=C(/C=C/c1ccc(CN2C(=O)CN=C(c3ccccc3)c3ccccc32)cc1)NO	0.05 to 0.1
O=C(NO)c1cnc(N2C[C@H]3C[C@@]3(c3ccc(Cl)c(Cl)c3)C2)nc1 [2-((1R,5S)-1-(3,4-dichlorophenyl)-3-azabicyclo[3.1.0]hexan-3-yl)-N-hydroxypyrimidine-5-carboxamide]	0.1 to 1

The remaining lines, values ahead:

IC50 [µM]	SMILES
1 to 10	O=C(NO)c1ccc(OCCN2C(=O)c3ccccc3Oc3ccccc32)cc1Cl
0.05 to 0.1	O=C(NO)c1ccc(OCCN2C(=O)c3ccccc3Oc3ccccc32)cc1F
0.1 to 1	O=C(C=C1c2ccccc2C=Cc2ccccc21)NO
1 to 10	O=C(C=C1c2ccccc2CCc2ccccc21)NO
0.1 to 1	O=C(CCCCCON=C1c2ccccc2CCc2ccccc21)NO
0.1 to 1	O=C(CCCON=C1c2ccccc2CCc2ccccc21)NO
< 0.05	O=C(NO)c1ccc(CNC2c3ccccc3CCc3ccccc32)cc1
0.1 to 1	O=C(NO)c1ccc(CON=C2c3ccccc3CCc3ccccc32)cc1
0.1 to 1	O=C(NO)c1ccc(ON=C2c3ccccc3CCc3ccccc32)cc1
< 0.05	O=C(NO)c1cnc(NC2c3ccccc3CCc3ccccc32)nc1
0.1 to 1	O=C(CCCCON=C1c2ccccc2CCc2ccccc21)NO
0.1 to 1	O=C(NO)c1cnc(N2CCN(C3c4ccccc4CCc4ccccc43)CC2)nc1
< 0.05	O=C(NO)c1cnc(NCC2c3ccccc3CCc3ccccc32)nc1
< 0.05	CN(c1ncc(C(=O)NO)cn1)C1c2ccccc2CCc2ccccc21
< 0.05	O=C(NO)c1cnc(NC2c3ccccc3C=Cc3ccccc32)nc1
< 0.05	O=C(NO)c1cnc(NC2c3ccccc3C=C(F)c3ccccc32)nc1 (stereo not shown)
< 0.05	O=C(NO)c1ccc(NC2c3ccccc3CCc3ccccc32)nc1
0.1 to 1	O=C(NO)c1cnc(C2c3ccccc3C=Cc3ccccc32)nc1
0.1 to 1	O=C(NO)c1ccc(COC2c3ccccc3CCc3ccccc32)cc1
0.1 to 1	O=C(NO)c1cccc(COC2c3ccccc3CCc3ccccc32)c1
0.1 to 1	O=C(NO)c1cccc(CNC2c3ccccc3CCc3ccccc32)c1
0.1 to 1	O=C(NO)c1cnc(N2C[C@H]3C[C@@]3(c3ccc(C(F)(F)F)cc3)C2)nc1
0.05 to 0.1	O=C(NO)c1ccc(/C=C/CN2C(=O)c3ccccc3Oc3ccccc32)cc1
0.1 to 1	O=C(NO)c1cnc(NC2c3ccccc3-c3ccccc32)nc1 [2-(9H-fluoren-9-ylamino)-N-hydroxypyrimidine-5-carboxamide]

Same assay, conditions: read-out: HDAC Inhibtion (IC50 μM) HDAC Enzyme

IC50 [µM]	SMILES
1 to 10	O=C(NO)c1ccc(C2=Nc3ccccc3S(=O)(=O)c3ccccc32)cc1
0.1 to 1	O=C(NO)c1ccc(C2=Nc3ccccc3[S+]([O-])c3ccccc32)cc1 (stereo not shown)
0.1 to 1	O=C(NO)c1ccc(C2=Nc3cncnc3N3CCc4cccc2c43)cc1
0.1 to 1	CN1CCN(C2=Nc3cc(C(=O)NO)ccc3Oc3ccccc32)CC1
